Entries after “also recorded” stand apart in the source; their conditions may differ.
Assays:
[1] = system: G9 tumors; assay: Platinum uptake by ICP-MS in G9 tumor-bearing mice (Example 2); type: in vivo; conditions: BiA 20 mg/kg tail vein, cisplatin 5 mg/kg 24 hours later
Description: Inductively Coupled Plasma-Mass Spectrometry (ICP-MS): For platinum quantitation, ICP-MS was performed in an Agilent 7900 ICP mass spectrometer and controlled using the ICP-MS MassHunter software. Machine calibration was performed using a tuning solution (Agilent), containing 1 ng/mL (1 ppb) of Li, Co, Y, Ce and Ti trace-metals. In each experiment, the desired internal standard was added to each sample and standard solution. Standard curves were prepared with potassium tetrachloroplatinate (II) (Thermo Fisher) by generating dilutions of 0.1, 1, 10, 50, 100 and 1000 parts per billion (ppb). Isotopes selected for platinum detection were Pt^195. Performance reports were registered daily for calibration and accuracy records.
For the assessment of the effects of indirubin on intratumoral accumulation of platinum, G9 tumors were implanted intracranially according to the protocols described above. Cisplatin (5 mg/kg) was injected via the tail vein 24 hours post-BIA injection (20 mg/kg vial tail vein), and accumulation measured after a further 5 hours.

[2] = system: hCMEC/D3 brain microvascular endothelial cells; assay: ECIS electrical impedance of endothelial monolayers (Example 1); type: cell-based, human; conditions: BiA 1 μM, p<0.05
Description: Electrical Impedance Measurements: Human Brain microvascular endothelial cell (purchased from Sciencell) monolayers were plated on special culture chambers on top of opposing circular gold electrodes (Applied Biophysics Inc). Impedance was automatically recorded during cell monolayer formation.
The in vitro effects of indirubin on endothelial monolayer permeability were also assess using Electric Cell-substrate Impedance Sensing (ECIS®) to provide a real-time, label-free, impedance-based study of cell behaviors in tissue culture. BiA (1 μM) was added to endothelial monolayers in an ECIS impedance measurement culture system (Applied Physics).

[3] = system: HCMEC/D3 cells; assay: Secretome (Luminex cytokine) quantification; type: cell-based, human; conditions: BIA 48 hours
Description: Secretome quantification: For cytokine analysis of brain endothelial cells after BIA exposure, HCMEC/D3 cells were plated at a density of 500,000 cells/well in a 6-well plate. Cells were treated with indicated doses of BIA or DMSO for 48 hours. Then, 1 mL of media was collected and processed for cytokine quantification in a Luminex platform (Thermo Fischer Scientific) following the provider's instructions.

[4] = system: G30 tumor-bearing mice; assay: Sodium fluorescein (NaF) BTB permeability study; type: in vivo
Description: In vivo studies: For intra-cranial tumor implantation, GBM neuro-spheres were grown to 70% confluency before dissociated into single cell on the day of surgery. 50,000 cells were resuspended in 3 μl of sterile PBS and injected intracranially into the striatum (2 mm right hemisphere, 1 mm frontal, 3 mm depth from bregma) of mice under anesthesia and stereo-tactically fixed. Tumors were left to grow for approximately 2-3 weeks, depending the cell line. Animals were randomized to treatment groups. BIA injections consisted of 20 mg/kg (i.p.), except if indicated otherwise. PPRX-1701 was administered at 20 mg/kg (i.v.) via lateral tail-vein. Cisplatin injections were performed at 5 mg/kg (maximum tolerated dose, i.p.). […]
Sodium fluorescein (NaF) BTB permeability studies: NaF was administered to G30 tumor-bearing mice intravenously (i.v.) via lateral tail vein at 20 mg/kg. Then, 30 minutes after administration when peak fluorescence is reached in the brain, mice were euthanized for immediate brain tissue harvest. […] Quantification of pixel intensities from acquired images was performed in ImageJ. Tissue samples were then homogenized in 1 mL of 60% trichloroacetic acid in PBS and measured at 488 nm in a Molecular Devices SpectraMax M2 plate reader.

[5] = system: HCMEC/D3 cells; assay: Immunofluorescence staining of HCMEC/D3 endothelial cells; type: cell-based, human; conditions: BIA 1 μM
Description: Immunofluorescent (IF) staining: For IF staining of HCMEC/D3 endothelial cells, we coated 8-well Nunc™ Lab-Tek™ chamber slides (Thermo Fisher Scientific) with 1× Type 1 rat-tail collagen (Corning) following provider's instructions. Then, we plated at a density of 50,000 cells/well and left in culture for 72 hours to allow for barrier formation. Next, we treated with BIA or control for 24-48 hours. Cells were then fixed with 10% formalin (Thermo Fisher Scientific) for 10 minutes, permeabilized for 30 minutes using 0.01% Triton X-100 and blocked with 0.1% normal donkey serum (Calbiochem) for 1 hour in 0.025% Tween-20 (Thermo Fisher Scientific) in Phosphate-Buffered Saline (PBS) (Gibco). Then, primary antibodies were added: mouse anti-CDH5 (VE-cadherin, BioLegend) 1:100, rabbit antiClaudin-5 (Thermo Fisher Scientific) 1:100, and mouse anti-ZO-1 (Invitrogen) 1:100, and incubated overnight in the cold. Next day, secondary antibodies were used for 2 hours at room temperature: Alexa Fluor 594 anti-mouse (1:500), Alexa Fluor 594 anti-rabbit (1:500), and Alexa Fluor 647 anti-mouse (1:500), all of these Thermo Fisher Scientific. For cytoskeleton staining Phalloidin-iFluor 488 (Abcam) 1:1000 for 30 minutes and nuclei staining using Hoechst 33342 (Thermo Fisher Scientific) 1:1000 for 5 minutes, at room temperature.

[6] = system: HCMEC/D3 cells; assay: Cell titer Glo viability assay on HCMEC/D3; type: cell-based, human; conditions: ~1-5 μM BIA, 72 hours
Description: Cell viability assay: Cells were plated at a density of 1500 cells/well in black-well clear bottom 96-well plates and left growing in culture conditions overnight. Next day, cells were treated with titrating doses of the indicated compounds. […] For BIA and cisplatin combinatorial studies, cells were incubated with BIA and cisplatin, and corresponding controls, for 5 days. Next, we used the Cell-Titer Glo 3D (Promega) following provider's guidelines and quantified for luminescence signal using a Molecular Devices SpectraMax M2 plate reader. Conditions were repeated in triplicates.

[7] = system: HCMEC/D3 cells; assay: Cell cycle analysis via flow cytometry of HCMEC/D3; type: cell-based, human; conditions: BIA 0.5 μM or 1 μM
Description: Flow cytometry for cell cycle, DNA damage and apoptosis assays: For cell cycle analysis, 100,000 HCMEC/D3 cells were plated in 6-well plates and treated with indicated concentrations of BIA or control for 48 hours. Then, cells were washed twice with PBS and fixed/permeabilized with 5 mL of cold 70% ethanol added dropped-wise while vortexing at low speed. Cells were stored for 1 day at −20 degrees Celsius, washed three times with PBS and treated with 20 μg/mL RNAse I (Thermo Fisher Scientific) and stained with anti-Ki-67 FITC-conjugated (1:1000) (BD Biosystems) and 1.5 μM propidium iodide (Thermo Fisher Scientific). Amer 30 minutes of incubation in the dark, cells were analyzed using a CytoFLEX system (Beckman Coulter). 50,000 events were counted, and data was analyzed using the CytoFLEX system software (Beckman Coulter).

## CC(=O)ON=C1C(=C2C(=O)Nc3cc(Br)ccc32)Nc2ccccc21 [BIA, 6-bromoindirubin acetoxime]
[1]
  in vivo uptake of platinum in healthy mouse brain: not in healthy mouse brain
[1]; measured after 5 hours
  in vivo uptake of platinum in tumor tissue: significantly increases the in vivo uptake of platinum
[2]
  trans-endothelial electrical resistance / impedance: significantly decrease trans-endothelial electrical resistance; also recorded: diminishes electrical impedance
[3]
  CCL2 secretion: significant downregulation
  cytokine secretion profile (TNF-α, IFNg, IL-17A, IL6, IL-1b, prolactin, CCL8, CCL4): pro-inflammatory secretion profile
[4]; after BIA administration
  NaF fluorescent signal in healthy brain: not in healthy brain
[4]; after BIA administration vs untreated controls
  NaF fluorescent signal in the tumor: significant accumulation in the tumor
[5]; 24-48 hrs
  CDH5 immunofluorescence at the membrane periphery: marked decrease
[5]; 48 hours
  Claudin-5 immunofluorescence: no difference
  ZO-1 immunofluorescence: marked reduction
[6]
  reduction of viability: up to 30%
[7]
  cell cycle states: slight decreased G1 and M states

From patent US20240358678A1, “METHODS AND COMPOSITIONS FOR ENHANCING CHEMOTHERAPEUTIC DRUG UPTAKE INTO BRAIN TUMORS” (Brown University, priority 2023, published 2024)
